Patent publication US20150111764A1, “POLYMERIZED MICROARRAYS” (New York University, priority 2013, published 2015)

Tests used:
[1] = biological target: T1, Rhodamine-labeled PNA (galactose-specific lectin) (Arachis hypogaea, UniProt P02872); assay: Control: glycan arrays exposed to Rhodamine-labeled PNA, fluorescence; assay type: binding; settings: PNA 1.5×10^−5 M, 5 h, washed with phosphate buffer/Tween 20
T1 sequence (P02872 24-273): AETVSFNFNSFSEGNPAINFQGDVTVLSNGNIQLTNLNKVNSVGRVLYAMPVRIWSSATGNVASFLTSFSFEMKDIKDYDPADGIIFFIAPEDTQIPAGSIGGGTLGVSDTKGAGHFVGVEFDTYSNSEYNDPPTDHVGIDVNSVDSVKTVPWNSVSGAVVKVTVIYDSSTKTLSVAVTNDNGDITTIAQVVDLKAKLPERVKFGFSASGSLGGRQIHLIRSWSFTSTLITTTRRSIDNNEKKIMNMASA
Excerpt: Control Experiments. […] This experiment supports the conclusion that fluorescence in the Cy3-labelled ConA exposed arrays of compound 3 and compound 4 arise from ConA-glucose binding (FIG. 27).

[2] = biological target: Concanavalin A (ConA) (Canavalia ensiformis, UniProt P02866)
Excerpt: Fluorescence intensity profiles of the array were obtained from a Nikon Eclipse Ti fluorescence microscope (λex=532-587 nm, λobs=608-683 nm), and extracted by NIS-elements software (Nikon Instruments, Inc.). Exposure times ranged from 1-4 s, depending on the brightness of the arrays. To compare data taken with different exposure times, the normalized fluorescence was obtained by dividing the maximum fluorescence by the background fluorescence. It is possible that the ratio of signal-to-background can vary with exposure time, so to test the effect of exposure time on the normalized fluorescence of features on the microarray, fluorescence images of a surface patterned with compound 4 and bound to Cy3-modified ConA were taken at different exposure time.
Preparation of Carbohydrate arrays by PPL-induced Thiol-ene and Thiol-acrylate reaction. To prepare the pen arrays for inking, they were exposed to O2 plasma (Harrick PDC-001, 30 s, medium power) to render the surfaces of the pen-arrays hydrophilic. […]
Arrays of compound 3 and compound 4 were prepared by the thiol-methacrylate and thiol-ene reactions, respectively, as well as α-mannosides immobilized by the thiol-ene and Cuaac reaction. Binding of Concanavalin A (ConA) to these arrays was measured by fluorescence microscopy to determine how the mutivalency of the resulting glycans affects binding. […]

Substance: α-glucomethacrylate [compound 3]
- fluorescence after exposure to Rhodamine-labeled PNA [1]: no fluorescence was observed
- fluorescence after exposure to Rhodamine-labeled PNA ([1]; listed as Compound 3): no visible fluorescence was observed
- lowest ConA concentration detected by the array ([2]; ConA concentration varied systematically, thiol-acrylate brush polymer arrays): 0.2 µM
- normalized fluorescence of array after ConA binding ([2]; Cy3-labelled ConA 0.5 mg/mL, 4 h at 4° C., maximum fluorescence divided by background fluorescence): 7.1±0.2
